Key:
ROCK2 = ROCK2 (Homo sapiens, UniProt O75116); test: ROCK2 kinase enzymatic activity (HTRF, STK2 substrate); assay type: biochemical; settings: ROCK2 kinase reaction 30 minutes at room temperature
Text: (§1) The kinase activity data was expressed by comparing the kinase activity of the test compound and that of the blank group (containing only DMSO), and the IC50 value was obtained by curve fitting using Prism software (GraphPad7.0).

[1] = test system: phosphorylation of myosin light chain T18/S19; test: In Cell Western for phosphorylation of myosin light chain in A7r5 cells; assay type: cell-based, rat
Text: The rat smooth muscle cell line A7r5 was used, and the A7r5 cell culture conditions were DMEM containing 10% FBS. Phspho-MLC-T18/S19 specific antibody and a second detection antibody were used to detect the phosphorylation level of myosin light chain by In Cell Western. Cells treated with positive compounds were used as positive controls, while the group without compounds but with compound solvents was used as negative controls. DRAQ5 stained cell nuclei were used as internal references. GraphPad Prism 7.0 software was used, and fitting was carried out by using a non-linear regression curve with varying slopes to determine the absolute IC50 value.
On the first day, A7r5 cells were resuspended in serum-free medium and seeded into 384 wells of PDL coated transparent black plates at a density of 5000 cells per well. Serum starvation culture was performed for 4 hours, and the cells were incubated with the compound in serum-free medium for 1 hour. 50 µL of 8% PFA (polyformaldehyde) was added to each well and fixed at room temperature for 1 hour. The liquid in the wells was discard and 90 µL of ice methanol was added to each well to permeabilize the cells at 4 °C for 1 hour. Then, PBST (0.1% Tween20-PBS) was added using an automatic separator to wash three times. After patting the plate for drying, 50 µL blocking solution was added to each well for sealing at room temperature for 1 hour. The phspho-MLC-T18/S19 specific antibody was diluted with the blocking solution at a ratio of 1:200. After adding 20 µL to each well, incubation was carried out overnight at 4 °C with a sealed film.
On the second day, the liquid in the wells was discarded and PBST was added using an automatic separator to wash the plate 5 times. After patting the plate for drying, the second detection antibody was diluted with blocking solution at a ratio of 1:800 and DRAQ5 at a ratio of 1:1000. After adding 20 µL to each well, incubation was carried out at room temperature for 1 hour. Then, the liquid in the wells was discarded and PBST was added using an automatic separator to wash the plate 3 times, followed by adding ddH2O to wash the plate 3 times. After patting the plate for drying, it was scaned using a LICOR Odyssey near-infrared imaging scanner.

ROCK1 = ROCK1 (Homo sapiens, UniProt Q13464); test: ROCK1 kinase enzymatic activity (HTRF, STK2 substrate); assay type: biochemical; settings: ROCK1 kinase reaction 20 minutes at room temperature
ROCK1, sequence (Q13464 whole entry): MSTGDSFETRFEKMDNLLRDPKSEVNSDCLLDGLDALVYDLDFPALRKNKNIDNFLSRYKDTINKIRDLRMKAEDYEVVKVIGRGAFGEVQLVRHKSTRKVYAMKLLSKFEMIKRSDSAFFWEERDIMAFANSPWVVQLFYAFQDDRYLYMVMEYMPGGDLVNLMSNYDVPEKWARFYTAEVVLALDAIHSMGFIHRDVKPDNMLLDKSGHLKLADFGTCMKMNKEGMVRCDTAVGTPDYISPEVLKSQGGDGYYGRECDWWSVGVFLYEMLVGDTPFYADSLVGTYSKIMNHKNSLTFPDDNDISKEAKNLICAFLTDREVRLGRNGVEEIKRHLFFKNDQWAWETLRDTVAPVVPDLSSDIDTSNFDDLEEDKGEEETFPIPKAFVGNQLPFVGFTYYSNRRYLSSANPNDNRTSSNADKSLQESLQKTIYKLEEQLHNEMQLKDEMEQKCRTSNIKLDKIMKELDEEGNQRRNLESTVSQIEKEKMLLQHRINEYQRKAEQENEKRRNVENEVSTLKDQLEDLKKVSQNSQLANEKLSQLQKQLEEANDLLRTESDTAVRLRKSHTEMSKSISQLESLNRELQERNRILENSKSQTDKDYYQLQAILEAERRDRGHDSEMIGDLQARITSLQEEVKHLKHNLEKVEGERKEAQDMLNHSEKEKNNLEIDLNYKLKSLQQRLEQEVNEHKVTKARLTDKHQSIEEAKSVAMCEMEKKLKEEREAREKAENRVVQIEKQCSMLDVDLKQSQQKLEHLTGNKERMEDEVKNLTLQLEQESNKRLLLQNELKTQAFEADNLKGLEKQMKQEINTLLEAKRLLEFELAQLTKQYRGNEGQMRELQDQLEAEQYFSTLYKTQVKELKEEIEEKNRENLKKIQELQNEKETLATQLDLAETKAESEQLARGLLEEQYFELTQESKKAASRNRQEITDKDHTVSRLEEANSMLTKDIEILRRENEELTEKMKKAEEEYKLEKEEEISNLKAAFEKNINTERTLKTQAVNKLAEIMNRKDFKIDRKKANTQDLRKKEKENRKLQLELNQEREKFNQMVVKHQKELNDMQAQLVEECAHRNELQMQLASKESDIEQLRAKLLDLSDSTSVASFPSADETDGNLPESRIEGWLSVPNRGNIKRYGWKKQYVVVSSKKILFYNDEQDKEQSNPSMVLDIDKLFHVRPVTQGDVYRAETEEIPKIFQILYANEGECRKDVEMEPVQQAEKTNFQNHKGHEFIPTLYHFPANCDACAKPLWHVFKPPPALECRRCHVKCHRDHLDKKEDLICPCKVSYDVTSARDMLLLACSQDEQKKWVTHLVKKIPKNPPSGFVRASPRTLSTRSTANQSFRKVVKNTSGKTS
Text: as §1

ROCK2, sequence (O75116 whole entry): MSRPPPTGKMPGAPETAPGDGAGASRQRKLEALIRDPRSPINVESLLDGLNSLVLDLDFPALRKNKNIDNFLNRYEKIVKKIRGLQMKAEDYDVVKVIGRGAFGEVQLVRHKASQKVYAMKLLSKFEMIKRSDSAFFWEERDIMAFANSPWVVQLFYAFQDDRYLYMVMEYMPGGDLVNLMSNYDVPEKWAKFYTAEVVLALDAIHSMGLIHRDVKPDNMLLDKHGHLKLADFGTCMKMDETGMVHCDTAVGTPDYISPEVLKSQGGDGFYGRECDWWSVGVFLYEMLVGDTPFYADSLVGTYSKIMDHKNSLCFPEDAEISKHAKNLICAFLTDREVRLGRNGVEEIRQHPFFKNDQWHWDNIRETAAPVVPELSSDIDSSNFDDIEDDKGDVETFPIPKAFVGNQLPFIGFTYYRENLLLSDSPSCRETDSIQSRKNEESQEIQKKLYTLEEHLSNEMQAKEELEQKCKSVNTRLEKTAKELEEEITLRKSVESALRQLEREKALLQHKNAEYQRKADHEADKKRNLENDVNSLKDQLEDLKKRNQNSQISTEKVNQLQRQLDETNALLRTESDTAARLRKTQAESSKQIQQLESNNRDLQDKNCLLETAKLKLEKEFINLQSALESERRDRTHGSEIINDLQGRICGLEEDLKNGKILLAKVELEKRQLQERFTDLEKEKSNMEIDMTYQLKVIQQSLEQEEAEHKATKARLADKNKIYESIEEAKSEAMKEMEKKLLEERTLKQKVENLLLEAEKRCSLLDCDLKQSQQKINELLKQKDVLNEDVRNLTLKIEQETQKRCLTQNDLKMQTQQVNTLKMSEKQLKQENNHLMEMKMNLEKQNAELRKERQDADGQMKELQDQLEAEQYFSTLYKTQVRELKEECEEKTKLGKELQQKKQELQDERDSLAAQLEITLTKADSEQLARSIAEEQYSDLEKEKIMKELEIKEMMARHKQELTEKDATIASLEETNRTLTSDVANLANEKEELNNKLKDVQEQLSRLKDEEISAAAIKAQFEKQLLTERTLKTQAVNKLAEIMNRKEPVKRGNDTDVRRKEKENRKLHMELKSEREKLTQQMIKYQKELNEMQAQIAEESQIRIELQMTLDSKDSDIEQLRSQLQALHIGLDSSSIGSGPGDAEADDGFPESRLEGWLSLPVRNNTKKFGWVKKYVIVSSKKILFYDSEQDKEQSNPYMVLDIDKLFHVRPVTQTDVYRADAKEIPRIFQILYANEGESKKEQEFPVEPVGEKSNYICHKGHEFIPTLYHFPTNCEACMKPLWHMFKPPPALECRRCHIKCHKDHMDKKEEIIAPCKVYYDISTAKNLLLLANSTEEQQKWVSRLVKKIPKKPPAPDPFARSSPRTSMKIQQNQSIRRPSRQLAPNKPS

| IC50 (ROCK2) [nM] | IC50 ([1]; Rattus norvegicus, A7R5, 1 h) [nM] | IC50 (ROCK1) [nM] | SMILES | IC50 ([1]; rat smooth muscle cell line A7r5, 1 hour compound incubation in serum-free medium, absolute IC50) [nM] |
| --- | --- | --- | --- | --- |
| < 5 | 185 | < 5 | N#CCC(C1CC2(CC2)C1)n1cc(-c2ncnc3[nH]ccc23)c(N)n1 (stereo not shown) [Example 21, 3-(3-amino-4-(7H-pyrrolo[2,3-d]pyrimidin-4-yl)-1H-pyrazol-1-yl)-3-(spiro[2.3]hexan-5-yl)propionitrile] |  |
| < 5 | 167 | < 5 | N#CCC1(n2cc(-c3ncnc4[nH]ccc34)c(N)n2)CC2(CCC2)C1 [Example 19, 2-(2-(3-amino-4-(7H-pyrrolo[2,3-d]pyrimidin-4-yl)-1H-pyrazol-1-yl)spiro[3.3]heptan-2-yl)acetonitrile] |  |
|  | 3940 |  | CC(C)NC(=O)COc1cccc(-c2nc(Nc3ccc4[nH]ncc4c3)c3ccccc3n2)c1 [Belumosudil, reference compound] |  |
| < 5 | 175 | < 5 | N#CCC(C1CCCCC1)n1cc(-c2ncnc3[nH]ccc23)c(N)n1 (stereo not shown) [Example 14, 3-(3-amino-4-(7H-pyrrolo[2,3-d]pyrimidin-4-yl)-1H-pyrazol-1-yl)-3-cyclohexylpropionitrile] |  |
| < 2 | 88 | < 5 | N#CC[C@@H](C1CC1)n1cc(-c2ncnc3[nH]ccc23)c(N)n1 [Example 26, (S)-3-(3-amino-4-(7H-pyrrolo[2,3-d]pyrimidin-4-yl)-1H-pyrazol-1-yl)-3-cyclopropylpropionitrile] |  |
| < 5 | 95 | < 5 | N#CC[C@H](C1CCC1)n1cc(-c2ncnc3[nH]ccc23)c(N)n1 [Example 27, (R)-3-(3-amino-4-(7H-pyrrolo[2,3-d]pyrimidin-4-yl)-1H-pyrazol-1-yl)-3-cyclobutylpropionitrile] |  |
| < 5 | 102 | < 5 | N#CCC1(n2cc(-c3ncnc4[nH]ccc34)c(N)n2)CC(F)(F)C1 [Example 6, 2-(1-(3-amino-4-(7H-pyrrolo[2,3-d]pyrimidin-4-yl)-1H-pyrazol-1-yl)-3,3-difluorocyclobutyl)acetonitrile] |  |
| < 5 | 225 | < 5 | CC1CC([C@H](CC#N)n2cc(-c3ncnc4[nH]ccc34)c(N)n2)C1 (stereo partly drawn) [Example 17, (3S)-3-(3-amino-4-(7H-pyrrolo[2,3-d]pyrimidin-4-yl)-1H-pyrazol-1-yl)-3-(-3-methylcyclobutyl)propanitrile] |  |
| < 50 | 1860 | < 50 | N#CC1CCCC1n1cc(-c2ncnc3[nH]ccc23)c(N)n1 (stereo not shown) [Example 7, 2-(3-amino-4-(7H-pyrrolo[2,3-d]pyrimidin-4-yl)-1H-pyrazol-1-yl)cyclopentane-1-nitrile] |  |
| < 50 | 1940 | < 50 | N#CC1CCCCC1n1cc(-c2ncnc3[nH]ccc23)c(N)n1 (stereo not shown) [Example 8, 2-(3-amino-4-(7H-pyrrolo[2,3-d]pyrimidin-4-yl)-1H-pyrazol-1-yl)cyclohexane-1-nitrile] |  |
| < 2 | 85 | < 5 | N#CCC(C1CC1)n1cc(-c2ncnc3[nH]ccc23)c(N)n1 (stereo not shown) [Example 12, 3-(3-amino-4-(7H-pyrrolo[2,3-d]pyrimidin-4-yl)-1H-pyrazol-1-yl)-3-cyclopropylpropanitrile] |  |
| < 5 | 264 | < 5 | N#CCC(C1CC2(CCCC2)C1)n1cc(-c2ncnc3[nH]ccc23)c(N)n1 (stereo not shown) [Example 22, 3-(3-amino-4-(7H-pyrrolo[2,3-d]pyrimidin-4-yl)-1H-pyrazol-1-yl)-3-(spiro[3.4]octan-2-yl)propionitrile] |  |
| < 5 | 215 | < 5 | CC1(C)CC(C(CC#N)n2cc(-c3ncnc4[nH]ccc34)c(N)n2)C1 (stereo not shown) [Example 15, 3-(3-amino-4-(7H-pyrrolo[2,3-d]pyrimidin-4-yl)-1H-pyrazol-1-yl)-3-(3,3-dimethylcyclobutyl)propionitrile] |  |
| < 5 | 120 | < 5 | N#CC[C@@H](C1CCC1)n1cc(-c2ncnc3[nH]ccc23)c(N)n1 [Example 28, (S)-3-(3-amino-4-(7H-pyrrolo[2,3-d]pyrimidin-4-yl)-1H-pyrazol-1-yl)-3-cyclobutylpropionitrile] |  |
| < 1 | 85 | < 2 | N#CCC1(n2cc(-c3ncnc4[nH]ccc34)c(N)n2)CS(=O)(=O)C1 [Example 2, 2-(3-(3-amino-4-(7H-pyrrolo[2,3-d]pyrimidin-4-yl)-1H-pyrazol-1-yl)-1,1-dioxothietan-3-yl)acetonitrile] |  |
| < 5 | 218 | < 5 | N#CCC(C1CC2(CCC2)C1)n1cc(-c2ncnc3[nH]ccc23)c(N)n1 (stereo not shown) [Example 20, 3-(3-amino-4-(7H-pyrrolo[2,3-d]pyrimidin-4-yl)-1H-pyrazol-1-yl)-3-(spiro[3.3]heptan-2-yl)propionitrile] |  |
| < 1 | 48 | < 2 | N#CC[C@]1(n2cc(-c3ncnc4[nH]ccc34)c(N)n2)C[C@H](C#N)C1 [Example 10, (1r,3r)-3-(3-amino-4-(7H-pyrrolo[2,3-d]pyrimidin-4-yl)-1H-pyrazol-1-yl)-3-(cyanomethyl)cyclobutane-1-carbonitrile] |  |
|  |  |  | Cc1ccc(C(=O)OCc2ccc([C@@H](CN)C(=O)Nc3ccc4cnccc4c3)cc2)c(C)c1 [Netarsudil, reference compound] | 288 |
| < 5 | 296 | < 5 | CC1CC([C@@H](CC#N)n2cc(-c3ncnc4[nH]ccc34)c(N)n2)C1 (stereo partly drawn) [Example 18, (3R)-3-(3-amino-4-(7H-pyrrolo[2,3-d]pyrimidin-4-yl)-1H-pyrazol-1-yl)-3-(-3-methylcyclobutyl)propanitrile] |  |
| < 5 | 111 | < 5 | N#CCC1(n2cc(-c3ncnc4[nH]ccc34)c(N)n2)CCCCC1 [Example 5, 2-(1-(3-amino-4-(7H-pyrrolo[2,3-d]pyrimidin-4-yl)-1H-pyrazol-1-yl)cyclohexyl)acetonitrile] |  |
| < 5 | 182 | < 5 | N#CC[C@@H](C1CCCCC1)n1cc(-c2ncnc3[nH]ccc23)c(N)n1 [Example 30, (S)-3-(3-amino-4-(7H-pyrrolo[2,3-d]pyrimidin-4-yl)-1H-pyrazol-1-yl)-3-cyclohexylpropionitrile] |  |
| < 1 | 78 | < 2 | N#CCC1(n2cc(-c3ncnc4[nH]ccc34)c(N)n2)CCS(=O)(=O)C1 (stereo not shown) [Example 3, 2-(3-(3-amino-4-(7H-pyrrolo[2,3-d]pyrimidin-4-yl)-1H-pyrazol-1-yl)-1,1-dioxotetrahydrothiophen-3-yl)acetonitrile] |  |
| 29.6 | 1680 |  | C[C@H]1CNCCCN1S(=O)(=O)c1cccc2cncc(F)c12 [Ripasudil, reference compound] |  |
| < 5 | 284 | < 5 | CC1CC(C(CC#N)n2cc(-c3ncnc4[nH]ccc34)c(N)n2)C1 (stereo not shown) [Example 16, 3-(3-amino-4-(7H-pyrrolo[2,3-d]pyrimidin-4-yl)-1H-pyrazol-1-yl)-3-(3-methylcyclobutyl)propanitrile] |  |
| < 5 | 195 | < 5 | N#CCC(C1CCC2(CC2)C1)n1cc(-c2ncnc3[nH]ccc23)c(N)n1 (stereo not shown) [Example 23, 3-(3-amino-4-(7H-pyrrolo[2,3-d]pyrimidin-4-yl)-1H-pyrazol-1-yl)-3-(spiro[2.4]hept-5-yl)propionitrile] |  |
| < 5 | 214 | < 5 | N#CCC(C1CC2CC2C1)n1cc(-c2ncnc3[nH]ccc23)c(N)n1 (stereo not shown) [Example 24, 3-(3-amino-4-(7H-pyrrolo[2,3-d]pyrimidin-4-yl)-1H-pyrazol-1-yl)-3-(bicyclo[3.1.0]hexyl-3-yl)propionitrile] |  |
| < 10 | 160 | < 10 | N#CCC1(n2cc(-c3ncnc4[nH]ccc34)c(N)n2)CCCC1 [Example 4, 2-(1-(3-amino-4-(7H-pyrrolo[2,3-d]pyrimidin-4-yl)-1H-pyrazol-1-yl)cyclopentyl)acetonitrile] |  |

| SMILES | IC50 (ROCK2) [nM] | IC50 ([1]; Rattus norvegicus, A7R5, 1 h) [nM] | IC50 (ROCK1) [nM] | IC50 ([1]; rat smooth muscle cell line A7r5, 1 hour compound incubation in serum-free medium, absolute IC50) [nM] |
| --- | --- | --- | --- | --- |
| N#CC[C@]1(n2cc(-c3ncnc4[nH]ccc34)c(N)n2)C[C@@H](C#N)C1 [Example 11, (1s,3s)-3-(3-amino-4-(7H-pyrrolo[2,3-d]pyrimidin-4-yl)-1H-pyrazol-1-yl)-3-(cyanomethyl)cyclobutane-1-carbonitrile] | < 10 | 466 | < 10 |  |

Source: patent EP4653440A1, “HETEROCYCLIC COMPOUND, AND PHARMACEUTICAL COMPOSITION AND USE THEREOF” (Prime Gene Therapeutics Co., Ltd., priority 2023, dated 2024)
